# Experiments:
# [1] = Displacement of [3H]leucine from Large neutral amino acids transporter system L in CHO cells; assay type: cell-based, Cricetulus griseus
# [2] = tested on: Mus musculus; experiment: Anticonvulsant activity in DBA/2 mouse assessed as protection from audiogenically-induced tonic seizures at 30 mg/kg, po after 1 hr; assay type: functional
# [3] = tested on: Mus musculus; experiment: Anxiolytic activity in DBA/2 mouse assessed as restoration of punished drinking behavior at 30 mg/kg, po relative to pregabalin; assay type: functional
# [4] = Plasma concentration in Sprague-Dawley rat at 30 mg/kg, po after 2 hrs; assay type: ADME, organism-based; design: dose 30 mg/kg, route oral
# [5] = Unbound fraction in rat; assay type: ADME, organism-based; conditions: in vivo
# [6] = Bioavailability in rat; assay type: ADME, organism-based; conditions: in vivo
# [7] = Clearance in rat; assay type: ADME, organism-based; conditions: in vivo
# [8] = Half life in rat plasma; assay type: ADME, organism-based
# [9] = AUC in rat; assay type: ADME, organism-based; conditions: plasma
# [10] = Volume of distribution at steady state in rat; assay type: ADME, organism-based; conditions: in vivo, read-out: Vdss
# [11] = tested on: Rattus norvegicus; experiment: Reduction in renal clearance in Wistar rat at 3 mg/kg, iv after 5 mins in presence of probenecid relative to control; assay type: ADME, organism-based; design: dose 3 mg/kg, route intravenous; conditions: in vivo
# [12] = tested on: Rattus norvegicus; experiment: Reduction in renal clearance in Wistar rat at 3 mg/kg, iv after 5 mins in presence of cimetidine relative to control; assay type: ADME, organism-based; design: dose 3 mg/kg, route intravenous; conditions: in vivo
# [13] = Displacement of [3H]gabapentin from alpha2-delta subunit of voltage gated calcium channel in pig brain membrane; assay type: cell membranes, Sus scrofa
# [14] = Drug level in Sprague-Dawley rat brain at 30 mg/kg, po after 2 hrs
structure (smiles),measurement,setting,value
NCC1(Cc2noc(=O)[nH]2)CCCCC1,IC50,[1],> 10000 µM
same,Activity,[2],20%
same,Activity,[3],11%
same,concentration at 2 h,[4],15000 ng/mL
same,fraction unbound,[5],> 0.9
same,bioavailability,[6],97%
same,clearance,[7],20.3 mL/min/kg
same,half-life,[8],1.6 h
same,AUC,[9],2200 ng·h/mL
same,Vd,[10],1.25 L/kg
same,reduction in CL_renal,[11],57%
same,reduction in CL_renal,[12],35%
NCC1(Cc2noc(=O)[nH]2)CCCCCCC1,IC50,[13],5.6 µM
Cn1c(CC2(CN)CCCCC2)noc1=O,IC50,[13],> 10 µM
NCC1(Cc2noc(=O)[nH]2)CCCC1,IC50,[13],1.14 µM
C[C@@H]1CCC[C@@](CN)(Cc2noc(=O)[nH]2)C1,IC50,[13],0.084 µM
CC(C)C[C@H](CN)CC(=O)O [PREGABALIN],IC50,[1],158 µM
same,Activity,[2],100%
same,Activity,[3],100%
same,concentration at 2 h,[14],7360 ng/mL
same,concentration at 2 h,[4],25600 ng/mL
same,bioavailability,[6],83%
same,clearance,[7],2.9 mL/min/kg
same,half-life,[8],2.7 h
same,AUC,[9],14800 ng·h/mL
same,Vd,[10],0.79 L/kg
NCC1(CC(=O)O)CCCCC1 [GABAPENTIN],IC50,[13],0.07 µM
same,IC50,[1],30 µM
same,Activity,[2],100%
same,Activity,[3],60%
same,half-life,[8],1.5 h
NCC1(Cc2noc(=O)[nH]2)CCCCCC1,IC50,[13],0.158 µM
CC(C)CC(CN)Cc1noc(=O)[nH]1 (racemic),IC50,[13],1.5 µM
NCC1(Cc2nnn[nH]2)CCCCC1,IC50,[13],0.1 µM
same,IC50,[1],> 10000 µM
Cn1nnnc1CC1(CN)CCCCC1,IC50,[13],> 10 µM
C[C@@H]1C[C@H](C)C[C@](CN)(Cc2noc(=O)[nH]2)C1,IC50,[13],> 10 µM
C[C@@H]1C[C@H](C)C[C@@](CN)(Cc2noc(=O)[nH]2)C1,IC50,[13],0.07 µM

# — ChEMBL document CHEMBL1139247 (Bioorg Med Chem Lett, 2009)
